Laboratory results published in BindingDB's records for doi:10.1016/j.bmcl.2005.05.109 (Merck Research Laboratories, 2005).

Test: Inhibition concentration (binding affinity) against […] melanocortin receptor 4 by displacement of [125I]NDP-alpha-MSH from the human receptors expressed in CHO cells

IC50: 7 µM
SMILES: CN1C[C@H]2CC[C@@H]1[C@H](C(=O)N[C@H](Cc1ccc(F)cc1)C(=O)N1CCC(C(=O)NC(C)(C)C)(C3CCCCC3)CC1)C2 [(1R,4S,6R)-2-Methyl-2-aza-bicyclo[2.2.2]octane-6-carboxylic acid [(R)-2-(4-tert-butylcarbamoyl-4-cyclohexyl-piperidin-1-yl)-1-(4-fluoro-benzyl)-2-oxo-ethyl]-amide]
